Data on one molecule can be found in publication PMC8147360, “AGMO Inhibitor Reduces 3T3-L1 Adipogenesis” (Cells, 2021).

As a reminder, the pIC50 is the negative decadic logarithm of the IC50, by convention in mol/L.

pIC50: −log10 of the molar value.

Assay [1] concerns the target T1, Alkylglycerol monooxygenase (AGMO) (Rattus norvegicus, UniProt A0JPQ8).
T1 construct: native enzyme in rat liver microsomes
T1 sequence (A0JPQ8 1-447): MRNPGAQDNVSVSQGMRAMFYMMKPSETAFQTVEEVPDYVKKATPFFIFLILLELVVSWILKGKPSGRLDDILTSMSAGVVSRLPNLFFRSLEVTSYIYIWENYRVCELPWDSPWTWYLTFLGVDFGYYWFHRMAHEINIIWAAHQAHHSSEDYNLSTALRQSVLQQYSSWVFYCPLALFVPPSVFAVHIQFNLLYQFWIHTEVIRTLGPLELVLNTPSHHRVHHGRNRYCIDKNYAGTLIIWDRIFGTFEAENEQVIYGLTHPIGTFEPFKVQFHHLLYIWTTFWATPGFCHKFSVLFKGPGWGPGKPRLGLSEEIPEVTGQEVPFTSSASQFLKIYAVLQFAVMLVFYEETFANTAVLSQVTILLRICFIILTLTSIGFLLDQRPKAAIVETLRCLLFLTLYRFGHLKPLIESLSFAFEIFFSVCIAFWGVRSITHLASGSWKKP
The experiment in a line: HPLC fluorescence activity assay with 1-O-pyrenedecyl-sn-glycerol in rat liver microsomes, coupled to FALDH (FALDH not inhibited). Format: biochemical. For orientation: Liver microsomes are a subcellular fraction often used to study metabolism.

Assay [2] has as its target T2, phenylalanine hydroxylase (PAH) (Rattus norvegicus, UniProt P04176).
T2 construct: rat PAH maltose fusion protein, expressed in E. coli
T2 sequence (P04176 2-453): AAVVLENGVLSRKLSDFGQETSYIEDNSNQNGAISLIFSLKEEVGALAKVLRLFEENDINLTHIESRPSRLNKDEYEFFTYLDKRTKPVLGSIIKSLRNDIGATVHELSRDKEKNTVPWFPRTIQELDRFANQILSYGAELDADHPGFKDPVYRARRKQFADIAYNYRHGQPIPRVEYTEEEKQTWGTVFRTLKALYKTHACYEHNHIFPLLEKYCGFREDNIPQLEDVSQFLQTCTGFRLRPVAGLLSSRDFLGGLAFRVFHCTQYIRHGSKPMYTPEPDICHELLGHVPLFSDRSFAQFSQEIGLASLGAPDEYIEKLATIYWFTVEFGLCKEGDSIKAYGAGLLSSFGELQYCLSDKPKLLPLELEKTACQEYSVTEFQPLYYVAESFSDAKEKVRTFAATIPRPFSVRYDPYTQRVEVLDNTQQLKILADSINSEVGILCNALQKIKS
The assay is described as follows: HPLC tyrosine fluorescence assay with purified recombinant PAH. Type of assay: biochemical.

For `CC1Nc2nc(N(C)C)[nH]c(=O)c2NC1C` (centres unmarked) [compound 6, 2-(dimethylamino)-6,7-dimethyl-5,6,7,8-tetrahydro-4(3H)-pteridinone], the values for the pIC50 in assay [1] and in assay [2] were about 4.30 and 3.37 to 3.44, respectively.
